ChEMBL document CHEMBL5465560, “Selectivity Literature for EUbOPEN Chemogenomic Library” (2024)

What was measured:
[1] = biological target: Non-receptor tyrosine-protein kinase TYK2 (Homo sapiens, UniProt P29597); test: Selectivity interaction (Ambit KINOMEscan and KiNATiv profiling in Jurkat cells) EUB0000090b TYK2; type: cell-based; conditions: at 1 µM
[2] = biological target: Tyrosine-protein kinase Lck (Homo sapiens, UniProt P06239); test: Selectivity interaction (Ambit KINOMEscan and KiNATiv profiling in Jurkat cells) EUB0000090b LCK; type: cell-based; conditions: at 1 µM
[3] = biological target: Serine/threonine-protein kinase MARK2 (Homo sapiens) (UniProt Q7KZI7); test: Selectivity interaction (KinomeScan (DiscoverX)) EUB0001079a MARK2; conditions: at 1 µM
[4] = biological target: T1, Serine/threonine-protein kinase BRSK2 (Homo sapiens) (UniProt Q8IWQ3); test: Selectivity interaction (KinomeScan (DiscoverX)) EUB0001079a BRSK2; conditions: at 1 µM
T1 sequence (whole entry): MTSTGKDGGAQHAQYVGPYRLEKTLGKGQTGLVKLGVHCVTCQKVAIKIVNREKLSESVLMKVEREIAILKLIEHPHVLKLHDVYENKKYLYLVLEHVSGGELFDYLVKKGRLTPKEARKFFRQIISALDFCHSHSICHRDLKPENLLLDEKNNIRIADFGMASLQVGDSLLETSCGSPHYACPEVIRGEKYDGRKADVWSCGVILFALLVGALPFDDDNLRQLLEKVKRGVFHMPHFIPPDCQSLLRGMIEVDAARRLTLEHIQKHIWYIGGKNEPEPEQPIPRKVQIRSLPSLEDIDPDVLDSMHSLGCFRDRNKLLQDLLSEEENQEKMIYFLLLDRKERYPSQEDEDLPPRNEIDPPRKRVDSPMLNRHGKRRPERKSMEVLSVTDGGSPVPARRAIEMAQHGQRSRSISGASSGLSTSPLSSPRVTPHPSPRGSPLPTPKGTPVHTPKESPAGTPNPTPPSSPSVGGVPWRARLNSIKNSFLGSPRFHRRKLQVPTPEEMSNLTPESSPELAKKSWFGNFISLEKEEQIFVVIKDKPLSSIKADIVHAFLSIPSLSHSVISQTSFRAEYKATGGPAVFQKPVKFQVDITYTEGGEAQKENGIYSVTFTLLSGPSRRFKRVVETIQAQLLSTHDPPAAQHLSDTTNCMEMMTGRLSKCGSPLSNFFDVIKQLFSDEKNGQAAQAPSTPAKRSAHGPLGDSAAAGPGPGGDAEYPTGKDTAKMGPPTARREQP

[5] = biological target: T2, Rhodopsin kinase GRK1 (Homo sapiens) (UniProt Q15835); test: Selectivity interaction (KinomeScan (DiscoverX)) EUB0001619a GRK1; conditions: at 1 µM
T2 sequence (whole entry): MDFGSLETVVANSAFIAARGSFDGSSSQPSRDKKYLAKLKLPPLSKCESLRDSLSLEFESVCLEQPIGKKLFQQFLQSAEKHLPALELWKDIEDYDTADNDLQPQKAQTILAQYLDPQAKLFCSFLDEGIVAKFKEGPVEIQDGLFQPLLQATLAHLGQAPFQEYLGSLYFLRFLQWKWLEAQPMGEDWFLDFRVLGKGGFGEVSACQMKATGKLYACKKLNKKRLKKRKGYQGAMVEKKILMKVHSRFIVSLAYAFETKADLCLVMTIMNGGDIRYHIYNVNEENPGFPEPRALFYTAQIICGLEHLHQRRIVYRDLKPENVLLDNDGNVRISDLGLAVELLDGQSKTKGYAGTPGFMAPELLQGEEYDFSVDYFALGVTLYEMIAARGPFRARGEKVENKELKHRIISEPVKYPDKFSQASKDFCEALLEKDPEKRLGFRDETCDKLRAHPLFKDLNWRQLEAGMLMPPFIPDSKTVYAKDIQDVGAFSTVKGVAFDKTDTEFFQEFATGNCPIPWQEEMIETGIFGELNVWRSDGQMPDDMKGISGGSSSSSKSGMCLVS

[6] = biological target: BMP-2-inducible protein kinase (Homo sapiens) (UniProt Q9NSY1); test: Selectivity interaction (KinomeScan (DiscoverX)) EUB0000045b BMP2K
[7] = biological target: Protein kinase C beta type (Homo sapiens, UniProt P05771); test: Selectivity interaction (Upstate Kinase Profiler service (Millipore)) EUB0000056c PRKCB; conditions: at 1 µM
[8] = biological target: T3, Serine/threonine-protein kinase Nek10 (Homo sapiens) (UniProt Q6ZWH5); test: Selectivity interaction (KinomeScan (DiscoverX)) EUB0000229b NEK10; conditions: at 10 µM
T3 sequence (whole entry): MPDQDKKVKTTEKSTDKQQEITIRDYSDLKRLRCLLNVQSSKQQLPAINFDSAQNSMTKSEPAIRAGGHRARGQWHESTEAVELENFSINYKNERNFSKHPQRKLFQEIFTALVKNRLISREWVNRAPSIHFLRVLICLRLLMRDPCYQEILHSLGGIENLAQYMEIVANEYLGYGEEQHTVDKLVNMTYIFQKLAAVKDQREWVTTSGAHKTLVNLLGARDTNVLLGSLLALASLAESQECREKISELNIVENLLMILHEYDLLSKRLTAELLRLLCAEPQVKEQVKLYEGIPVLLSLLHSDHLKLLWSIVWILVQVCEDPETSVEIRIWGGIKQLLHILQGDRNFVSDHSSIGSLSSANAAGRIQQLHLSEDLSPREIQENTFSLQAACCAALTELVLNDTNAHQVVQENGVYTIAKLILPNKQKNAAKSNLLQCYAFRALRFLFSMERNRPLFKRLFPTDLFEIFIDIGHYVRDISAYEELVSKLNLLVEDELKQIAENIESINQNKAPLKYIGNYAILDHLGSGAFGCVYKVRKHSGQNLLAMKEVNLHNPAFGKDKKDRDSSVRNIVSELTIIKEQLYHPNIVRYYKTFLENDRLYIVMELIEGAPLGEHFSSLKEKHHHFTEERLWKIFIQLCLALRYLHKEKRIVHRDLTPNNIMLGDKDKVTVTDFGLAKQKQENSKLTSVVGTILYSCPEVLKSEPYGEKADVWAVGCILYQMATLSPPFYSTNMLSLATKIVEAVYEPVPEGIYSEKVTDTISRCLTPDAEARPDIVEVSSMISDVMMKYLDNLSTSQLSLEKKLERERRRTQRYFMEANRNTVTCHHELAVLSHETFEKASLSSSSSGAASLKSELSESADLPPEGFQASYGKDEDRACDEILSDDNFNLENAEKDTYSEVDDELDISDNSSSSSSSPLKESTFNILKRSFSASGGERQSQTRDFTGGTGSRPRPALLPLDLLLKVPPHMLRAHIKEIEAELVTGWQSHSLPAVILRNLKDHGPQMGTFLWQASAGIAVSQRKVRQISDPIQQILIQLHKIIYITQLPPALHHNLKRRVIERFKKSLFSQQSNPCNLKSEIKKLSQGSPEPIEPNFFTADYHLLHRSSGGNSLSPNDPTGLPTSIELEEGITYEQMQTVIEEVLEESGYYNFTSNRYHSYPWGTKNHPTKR

[9] = biological target: Serine/threonine-protein kinase Nek7 (Homo sapiens) (UniProt Q8TDX7); test: Selectivity interaction (Kinase panel (Z-LYTE Assay)) EUB0001632a NEK7; conditions: at 10 µM
Serine/threonine-protein kinase Nek7 (Homo sapiens), sequence (Q8TDX7 whole entry, looked up): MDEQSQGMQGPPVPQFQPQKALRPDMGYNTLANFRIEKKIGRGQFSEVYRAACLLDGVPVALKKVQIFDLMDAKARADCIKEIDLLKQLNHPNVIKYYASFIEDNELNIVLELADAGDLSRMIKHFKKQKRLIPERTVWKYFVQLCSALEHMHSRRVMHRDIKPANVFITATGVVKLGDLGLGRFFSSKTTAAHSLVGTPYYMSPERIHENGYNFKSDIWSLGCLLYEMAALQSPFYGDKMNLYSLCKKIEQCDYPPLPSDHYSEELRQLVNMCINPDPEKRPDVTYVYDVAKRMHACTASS

BMP-2-inducible protein kinase (Homo sapiens), sequence (Q9NSY1 whole entry, looked up): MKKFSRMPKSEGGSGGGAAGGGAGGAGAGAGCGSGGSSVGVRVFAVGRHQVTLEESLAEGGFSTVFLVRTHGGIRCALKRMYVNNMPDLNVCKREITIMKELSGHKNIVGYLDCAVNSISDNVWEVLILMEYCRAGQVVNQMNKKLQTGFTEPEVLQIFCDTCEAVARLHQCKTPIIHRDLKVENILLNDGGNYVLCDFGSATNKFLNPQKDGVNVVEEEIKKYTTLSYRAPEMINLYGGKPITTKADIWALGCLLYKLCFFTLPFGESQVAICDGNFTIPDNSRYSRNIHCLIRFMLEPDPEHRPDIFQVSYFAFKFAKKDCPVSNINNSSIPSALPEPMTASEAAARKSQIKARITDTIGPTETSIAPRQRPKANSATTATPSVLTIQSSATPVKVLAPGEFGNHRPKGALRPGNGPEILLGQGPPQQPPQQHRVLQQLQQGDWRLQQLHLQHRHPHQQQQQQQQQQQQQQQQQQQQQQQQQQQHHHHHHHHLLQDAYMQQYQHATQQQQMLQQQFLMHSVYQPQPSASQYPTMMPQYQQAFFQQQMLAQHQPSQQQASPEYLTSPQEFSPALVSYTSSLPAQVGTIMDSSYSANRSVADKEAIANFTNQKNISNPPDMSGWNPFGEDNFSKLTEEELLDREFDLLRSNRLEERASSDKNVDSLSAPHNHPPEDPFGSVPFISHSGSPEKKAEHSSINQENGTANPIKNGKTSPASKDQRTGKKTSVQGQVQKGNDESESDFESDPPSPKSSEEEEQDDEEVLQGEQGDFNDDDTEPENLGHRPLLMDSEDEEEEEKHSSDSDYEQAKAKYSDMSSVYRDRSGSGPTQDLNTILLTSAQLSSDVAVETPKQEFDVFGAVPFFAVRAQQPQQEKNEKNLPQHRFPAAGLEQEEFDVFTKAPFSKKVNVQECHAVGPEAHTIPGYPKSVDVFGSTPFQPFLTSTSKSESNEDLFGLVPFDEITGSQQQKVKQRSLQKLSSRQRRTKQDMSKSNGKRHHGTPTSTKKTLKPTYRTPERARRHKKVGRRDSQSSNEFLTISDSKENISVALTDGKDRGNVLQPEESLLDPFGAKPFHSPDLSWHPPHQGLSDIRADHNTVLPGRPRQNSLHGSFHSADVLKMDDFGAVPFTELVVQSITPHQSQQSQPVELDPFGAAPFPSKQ
Tyrosine-protein kinase Lck, sequence (P06239 2-509 limits assumed): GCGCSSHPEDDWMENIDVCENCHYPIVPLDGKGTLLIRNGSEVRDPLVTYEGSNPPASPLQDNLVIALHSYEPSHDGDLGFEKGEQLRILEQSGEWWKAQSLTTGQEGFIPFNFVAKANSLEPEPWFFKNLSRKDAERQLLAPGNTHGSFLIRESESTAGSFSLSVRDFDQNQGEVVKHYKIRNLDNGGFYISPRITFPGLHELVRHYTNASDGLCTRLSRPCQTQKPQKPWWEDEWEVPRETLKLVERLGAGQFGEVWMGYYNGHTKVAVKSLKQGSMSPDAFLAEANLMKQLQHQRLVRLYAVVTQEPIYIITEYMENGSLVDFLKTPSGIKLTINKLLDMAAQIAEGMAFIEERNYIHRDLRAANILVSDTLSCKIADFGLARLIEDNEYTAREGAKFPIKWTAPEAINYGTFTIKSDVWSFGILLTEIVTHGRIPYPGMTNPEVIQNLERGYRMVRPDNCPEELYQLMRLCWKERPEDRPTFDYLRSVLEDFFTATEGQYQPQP
Serine/threonine-protein kinase MARK2 (Homo sapiens), sequence (Q7KZI7 whole entry): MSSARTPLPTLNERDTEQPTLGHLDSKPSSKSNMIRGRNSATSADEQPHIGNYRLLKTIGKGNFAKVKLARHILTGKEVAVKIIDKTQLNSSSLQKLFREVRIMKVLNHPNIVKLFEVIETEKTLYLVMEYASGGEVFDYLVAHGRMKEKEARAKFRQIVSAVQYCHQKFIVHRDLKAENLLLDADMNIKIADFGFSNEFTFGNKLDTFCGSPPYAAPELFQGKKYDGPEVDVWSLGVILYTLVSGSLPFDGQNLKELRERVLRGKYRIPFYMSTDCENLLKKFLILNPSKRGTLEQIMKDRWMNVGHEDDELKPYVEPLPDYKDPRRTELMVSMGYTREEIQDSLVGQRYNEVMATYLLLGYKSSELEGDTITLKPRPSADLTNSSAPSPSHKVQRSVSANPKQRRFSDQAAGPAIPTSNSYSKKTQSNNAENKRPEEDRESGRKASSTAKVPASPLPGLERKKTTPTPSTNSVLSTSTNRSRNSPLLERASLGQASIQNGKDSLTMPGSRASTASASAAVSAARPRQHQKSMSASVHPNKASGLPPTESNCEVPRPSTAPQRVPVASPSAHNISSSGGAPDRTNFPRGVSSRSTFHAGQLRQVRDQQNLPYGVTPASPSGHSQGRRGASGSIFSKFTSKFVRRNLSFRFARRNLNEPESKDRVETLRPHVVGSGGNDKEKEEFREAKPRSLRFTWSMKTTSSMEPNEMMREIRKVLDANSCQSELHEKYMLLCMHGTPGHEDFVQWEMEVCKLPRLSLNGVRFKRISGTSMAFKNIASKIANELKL
Protein kinase C beta type, sequence (P05771 2-671 limits assumed): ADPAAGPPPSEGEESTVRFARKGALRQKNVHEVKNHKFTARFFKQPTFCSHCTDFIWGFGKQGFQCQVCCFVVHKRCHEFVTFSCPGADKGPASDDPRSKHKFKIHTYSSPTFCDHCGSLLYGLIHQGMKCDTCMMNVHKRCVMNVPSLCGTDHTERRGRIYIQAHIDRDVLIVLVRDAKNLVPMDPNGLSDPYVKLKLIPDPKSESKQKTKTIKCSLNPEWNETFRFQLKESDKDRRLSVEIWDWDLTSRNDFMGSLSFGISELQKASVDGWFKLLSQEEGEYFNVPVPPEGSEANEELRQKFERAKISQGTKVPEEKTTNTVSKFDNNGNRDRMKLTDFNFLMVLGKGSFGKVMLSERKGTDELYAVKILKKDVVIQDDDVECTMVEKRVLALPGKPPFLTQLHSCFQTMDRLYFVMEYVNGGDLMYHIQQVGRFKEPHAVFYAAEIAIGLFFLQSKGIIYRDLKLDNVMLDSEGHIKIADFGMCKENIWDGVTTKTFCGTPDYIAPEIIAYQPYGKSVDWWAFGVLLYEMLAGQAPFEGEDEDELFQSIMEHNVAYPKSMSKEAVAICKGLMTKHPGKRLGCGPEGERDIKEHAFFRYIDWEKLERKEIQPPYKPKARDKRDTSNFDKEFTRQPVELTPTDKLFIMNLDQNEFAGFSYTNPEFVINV
Non-receptor tyrosine-protein kinase TYK2, sequence (P29597 whole entry): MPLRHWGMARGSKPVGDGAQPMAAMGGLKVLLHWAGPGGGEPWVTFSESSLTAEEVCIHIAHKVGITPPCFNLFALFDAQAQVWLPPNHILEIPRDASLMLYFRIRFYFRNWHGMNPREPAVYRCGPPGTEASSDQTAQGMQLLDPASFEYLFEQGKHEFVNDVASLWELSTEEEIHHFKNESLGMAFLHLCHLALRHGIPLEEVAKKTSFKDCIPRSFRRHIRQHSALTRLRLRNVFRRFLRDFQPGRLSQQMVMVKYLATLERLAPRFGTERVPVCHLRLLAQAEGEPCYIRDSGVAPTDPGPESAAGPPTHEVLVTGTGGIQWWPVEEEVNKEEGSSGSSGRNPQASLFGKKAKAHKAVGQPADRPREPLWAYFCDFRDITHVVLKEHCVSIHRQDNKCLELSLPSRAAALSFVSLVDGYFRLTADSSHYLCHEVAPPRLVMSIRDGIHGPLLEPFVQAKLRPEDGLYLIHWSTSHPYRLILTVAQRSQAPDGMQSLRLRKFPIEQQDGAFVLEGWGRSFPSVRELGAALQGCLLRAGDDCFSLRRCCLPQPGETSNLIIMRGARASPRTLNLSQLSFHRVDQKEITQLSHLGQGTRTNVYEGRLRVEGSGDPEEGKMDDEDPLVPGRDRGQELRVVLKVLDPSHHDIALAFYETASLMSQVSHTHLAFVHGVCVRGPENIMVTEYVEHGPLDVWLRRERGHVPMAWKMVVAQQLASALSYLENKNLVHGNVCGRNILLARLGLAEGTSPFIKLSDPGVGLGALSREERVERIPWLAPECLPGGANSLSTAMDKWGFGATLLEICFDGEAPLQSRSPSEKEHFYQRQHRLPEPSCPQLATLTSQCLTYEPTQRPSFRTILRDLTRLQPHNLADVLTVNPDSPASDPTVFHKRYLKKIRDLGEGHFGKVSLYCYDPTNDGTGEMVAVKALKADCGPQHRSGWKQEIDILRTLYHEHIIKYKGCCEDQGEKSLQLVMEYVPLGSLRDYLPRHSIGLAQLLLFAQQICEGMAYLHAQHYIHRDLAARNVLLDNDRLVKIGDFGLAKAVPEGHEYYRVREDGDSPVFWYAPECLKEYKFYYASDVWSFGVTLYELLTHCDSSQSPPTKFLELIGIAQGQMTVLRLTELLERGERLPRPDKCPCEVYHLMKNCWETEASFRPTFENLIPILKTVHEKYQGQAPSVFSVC

## CN(C)C/C=C/C(=O)Nc1ccc(C(=O)N2CCCC(Nc3ncc(Cl)c(-c4c[nH]c5ccccc45)n3)C2)cc1 (stereo not given)
[1]
  % of control: 99%
[2]
  % of control: 84%

## Nc1cnc(N2CCc3cc(S(=O)(=O)Nc4c(F)cc(Cl)cc4F)cc(N4CCCC4=O)c32)nc1 [TP-020n]
[3]
  % of control: 74%
[4]
  % of control: 80%

## N#Cc1cccc(-c2c[nH]c3ncnc(N4CCOCC4)c23)c1
[5]
  % of control: 74%

## C=CC(=O)Nc1cc(-n2c(=O)ccc3cnc4ccc(-c5ccc(NS(C)(=O)=O)cc5)cc4c32)ccc1C
[6]; at 1 µM
  % of control: 76%
[6]; at 10 µM
  % of control: 39%

## Cc1ccc(-c2ccc3c(ccc4sc5c(c43)NC[C@@H](C)NC5=O)n2)cn1
[7]
  % of inhibition: 8%

## COc1cc(N(C)c2ccnc3ccc(C(F)(F)F)cc23)cc(OC)c1OC
[8]
  % binding: 100%

## Cn1cc(-n2cnc3c(NCc4nc5cc(Cl)c(Cl)cc5[nH]4)nc(N4CCOCC4)nc32)cn1
[9]
  % of control: -10.9%
